From patent US20210300924A1, “5-[6-[[3-(4,5,6,7-TETRAHYDROPYRAZOLO[4,3-C]PYRIDIN-1-YL)AZETIDIN-1-YL]METHYL]MORPHOLIN-4-YL]QUINOLINE-8-CARBONITRILE DERIVATIVES AND SIMILAR COMPOUNDS AS TLR7-9 ANTAGONISTS FOR TREATING SYSTEMIC LUPUS ERYTHEMATOSUS” (Hoffmann-La Roche Inc., priority 2018, published 2021) come the findings set out here.

SMILES strings stand for the structures.

One data set deals with T1, CYP2D6 (Homo sapiens, UniProt P10635).
T1 construct: tissue BD-Gentest 452117; host or cells: human liver microsomes
T1 sequence (P10635 whole entry): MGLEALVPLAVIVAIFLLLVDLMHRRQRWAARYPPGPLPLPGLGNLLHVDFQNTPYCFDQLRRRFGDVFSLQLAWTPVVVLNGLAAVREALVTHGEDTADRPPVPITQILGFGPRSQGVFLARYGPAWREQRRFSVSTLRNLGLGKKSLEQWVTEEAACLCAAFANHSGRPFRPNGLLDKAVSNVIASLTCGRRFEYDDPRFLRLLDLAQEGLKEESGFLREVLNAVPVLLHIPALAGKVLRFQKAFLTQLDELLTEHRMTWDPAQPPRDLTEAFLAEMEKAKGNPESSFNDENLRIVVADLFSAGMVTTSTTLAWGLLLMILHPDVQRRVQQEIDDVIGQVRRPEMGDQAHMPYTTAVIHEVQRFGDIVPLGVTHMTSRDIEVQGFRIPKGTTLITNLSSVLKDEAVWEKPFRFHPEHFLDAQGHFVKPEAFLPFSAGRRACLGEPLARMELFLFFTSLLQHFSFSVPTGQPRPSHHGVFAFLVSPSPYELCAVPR
Description: CYP inhibition assay in human liver microsome. It counts as in vitro ADME. The following applies: human liver microsomes, probe dextromethorphan, dextromethorphan substrate, percentage inhibition <0: not or weak inhibitor, read-out: CYP 2D6 inhibition % @ 10 μM. The protocol: This is a high throughput screening assay used for assessment of reversible inhibition of CYP2D6 activity of test compounds in human liver microsome (HLM) in early discovery stage.
10 mM DMSO stock solutions of test compounds were diluted in DMSO to generate 2 mM intermediate stock solution. 250 nL of intermediate stock solution were transferred in duplicate into 3 separate 384 well microtitre plates (assay-ready plates). A mixture of HLM and each substrate was made up. 45 μL of HLM substrate mix was then transferred to each well of an assay ready plate and mixed. The negative (solvent) and positive control (standard inhibitor for CYP 2D6) were included in each assay ready plate. The assay ready plate was warmed to 37° C. in an incubator over 10 minutes. 5 μL pre-warmed NADPH regenerating system was added to each incubation well to start the reaction. Final incubation volume was 50 μL. The assay plate then was placed back in the 37° C. incubator. After 10 minutes incubation, incubates were quenched by addition of 50 μL 100% acetonitrile containing internal standards (20 ng/mL D3-Dextrorphan). The supernatants were collected for RapidFire/MS/MS analysis.
RapidFire online solid phase extraction/sample injection system (Agilent) coupled with API4000 triple quadrupole mass spectrometer (AB Sciex) were used for sample analysis. The mobile phase composed of acetonitrile and water supplemented with 0.1% formic acid. A C4 solid phase extraction cartridge is used for sample separation. MS detection is achieved in positive ion MRM mode.
Peak areas for substrate, metabolite and internal standard are determined using the RapidFire integrator software (version 3.6.12009.12296). Peak area ratios (PAR) of metabolite and internal standard (stable-labelled metabolite) are then calculated. The measurement window for each experiment is then defined:
PAR (0% activity)=average PAR for all incubations containing concentrated inhibitor;
Par (100% activity)=average PAR for all incubations containing no inhibitor (DMSO controls);
% Activity (test inhibitor)=
[PAR(test inhibitor)−PAR(0% activity)]/[PAR(100% activity)−PAR(0% activity)]; % Inhibition (test inhibitor)=100−% Activity (test inhibitor).

The target of another data set is T2, TLR9 (Homo sapiens, UniProt Q9NR96).
T2 sequence (Q9NR96 26-1032): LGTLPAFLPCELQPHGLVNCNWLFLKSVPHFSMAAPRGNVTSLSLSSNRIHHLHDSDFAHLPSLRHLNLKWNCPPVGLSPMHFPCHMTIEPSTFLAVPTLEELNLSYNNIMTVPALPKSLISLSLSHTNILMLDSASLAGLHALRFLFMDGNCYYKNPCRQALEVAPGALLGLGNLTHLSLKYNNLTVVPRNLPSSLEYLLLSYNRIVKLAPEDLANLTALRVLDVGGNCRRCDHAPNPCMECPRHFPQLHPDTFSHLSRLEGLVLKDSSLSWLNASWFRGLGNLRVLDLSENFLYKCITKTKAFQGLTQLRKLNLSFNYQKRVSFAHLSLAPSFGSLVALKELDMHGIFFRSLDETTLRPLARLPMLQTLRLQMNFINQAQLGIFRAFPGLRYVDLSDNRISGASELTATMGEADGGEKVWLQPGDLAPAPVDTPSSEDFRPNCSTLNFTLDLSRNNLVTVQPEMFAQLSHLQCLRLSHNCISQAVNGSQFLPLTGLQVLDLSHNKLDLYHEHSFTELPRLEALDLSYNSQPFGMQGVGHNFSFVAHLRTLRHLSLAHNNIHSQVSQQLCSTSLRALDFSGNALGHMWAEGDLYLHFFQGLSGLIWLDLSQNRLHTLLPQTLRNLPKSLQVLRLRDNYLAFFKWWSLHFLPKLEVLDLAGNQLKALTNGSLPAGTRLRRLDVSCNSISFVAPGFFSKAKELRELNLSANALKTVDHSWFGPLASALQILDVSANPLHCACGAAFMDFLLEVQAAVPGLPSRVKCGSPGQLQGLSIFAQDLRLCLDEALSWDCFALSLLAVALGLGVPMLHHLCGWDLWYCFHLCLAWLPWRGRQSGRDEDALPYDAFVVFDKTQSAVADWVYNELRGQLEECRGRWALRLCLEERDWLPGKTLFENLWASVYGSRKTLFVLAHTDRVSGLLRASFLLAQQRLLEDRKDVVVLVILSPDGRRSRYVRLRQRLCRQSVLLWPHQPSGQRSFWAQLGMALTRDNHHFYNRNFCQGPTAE
Description: HEK293-Blue-hTLR-9 cells assay. The following applies: HEK293-Blue-hTLR9 cells, ODN2006 stimulation, 20 hrs, SEAP reporter; read-out: HEK/hTLR9 IC50. Also on record: host or cells: HEK293 (HEK-Blue hTLR9). It counts as cell-based. The source says: HEK293-Blue-hTLR-9 Cells Assay:
A stable HEK293-Blue-hTLR-9 cell line was purchased from InvivoGen (Cat. #: hkb-htlr9, San Diego, Calif., USA). These cells were originally designed for studying the stimulation of human TLR9 by monitoring the activation of NF-κB. A SEAP (secreted embryonic alkaline phosphatase) reporter gene was placed under the control of the IFN-β minimal promoter fused to five NF-κB and AP-1-binding sites. The SEAP was induced by activating NF-κB and AP-1 via stimulating HEK-Blue hTLR9 cells with TLR9 ligands. Therefore the reporter expression was declined by TLR9 antagonist under the stimulation of a ligand, such as ODN2006 (Cat. #: tlr1-2006-1, Invivogen, San Diego, Calif., USA), for incubation of 20 hrs. The cell culture supernatant SEAP reporter activity was determined using QUANTI-Blue™ kit (Cat. #: rep-01, Invivogen, San Diego, Calif., USA) at a wavelength of 640 nm, a detection medium that turns purple or blue in the presence of alkaline phosphatase.
HEK293-Blue-hTLR9 cells were incubated at a density of 250,000-450,000 cells/mL in a volume of 170 μL in a 96-well plate in Dulbecco's Modified Eagle's medium (DMEM) containing 4.5 g/L glucose, 50 U/mL penicillin, […], 2 mM L-glutamine, 10% (v/v) heat-inactivated fetal bovine serum with addition of 20 μL test compound in a serial dilution in the presence of final DMSO at 1% and 10 μL of 20 uM ODN2006 in above DMEM, perform incubation under 37° C. in a CO2 incubator for 20 hrs. Then 20 μL of the supernatant from each well was incubated with 180 μL Quanti-blue substrate solution at 37° C. for 2 h and the absorbance was read at 620-655 nm using a spectrophotometer. The signaling pathway that TLR9 activation leads to downstream NF-κB activation has been widely accepted, and therefore similar reporter assay was modified for evaluating TLR9 antagonist.

On to `CCN1CCc2cn(C3CN(C[C@H]4CN(c5ccc(C#N)c6ncccc56)C[C@@H](C)O4)C3)nc2C1` [Example 7, 5-[(2S,6R)-2-[[3-(6-ethyl-5,7-dihydro-4H-pyrazolo[3,4-c]pyridin-2-yl)azetidin-1-yl]methyl]-6-methyl-morpholin-4-yl]quinoline-8-carbonitrile], for which the inhibition at 10 min, 10 µM on CYP2D6 is -19.5%. For the same compound, the IC50 at TLR9 worked out at 116 nM.

For the compound `C[C@@H]1CN(c2ccc(C#N)c3ncccc23)C[C@H](CN2CC(n3ncc4c3CCN[C@H]4C)C2)O1` [Example 22, 5-[(2R,6S)-2-methyl-6-[[3-[(4S)-4-methyl-4,5,6,7-tetrahydropyrazolo[4,3-c]pyridin-1-yl]azetidin-1-yl]methyl]morpholin-4-yl]quinoline-8-carbonitrile], on CYP2D6, the inhibition at 10 min, 10 µM was 5.5%. The IC50 at TLR9 was 70 nM.

Regarding `C[C@@H]1Cc2nn(C3CN(C[C@H]4CN(c5ccc(C#N)c6ncccc56)C[C@@H](C)O4)C3)cc2CN1` [Example 17, 5-[(2R,6S)-2-methyl-6-[[3-[(6R)-6-methyl-4,5,6,7-tetrahydropyrazolo[4,3-c]pyridin-2-yl]azetidin-1-yl]methyl]morpholin-4-yl]quinoline-8-carbonitrile], the inhibition at 10 min, 10 µM on CYP2D6 turned out to be 1.5%. Also, the IC50 at TLR9 stood at 88 nM.

As to `C[C@@H]1CN(c2ccc(C#N)c3ncccc23)C[C@H](CN2CC(n3cc4c(n3)C[C@H](C)NC4)C2)O1` [Example 19, 5-[(2R,6S)-2-methyl-6-[[3-[(6S)-6-methyl-4,5,6,7-tetrahydropyrazolo[4,3-c]pyridin-2-yl]azetidin-1-yl]methyl]morpholin-4-yl]quinoline-8-carbonitrile], the inhibition at 10 min, 10 µM at CYP2D6 is -2.5%. In addition, on TLR9, the IC50 amounted to 122 nM.

Regarding `CCN1CCc2cnn(C3CN(C[C@H]4CN(c5ccc(C#N)c6ncccc56)C[C@@H](C)O4)C3)c2C1` [Example 6, 5-[(2S,6R)-2-[[3-(6-ethyl-5,7-dihydro-4H-pyrazolo[3,4-c]pyridin-1-yl)azetidin-1-yl]methyl]-6-methyl-morpholin-4-yl]quinoline-8-carbonitrile], on CYP2D6, the inhibition at 10 min, 10 µM amounted to 8.5%. Besides, the IC50 at TLR9 was found to be 153 nM.

On to `C[C@@H]1CN(c2ccc(C#N)c3ncccc23)C[C@H](CN2CC(n3cc4c(n3)CCNC4)C2)O1` [Example 2, 5-[(2R,6S)-2-methyl-6-[[3-(4,5,6,7-tetrahydropyrazolo[4,3-c]pyridin-2-yl)azetidin-1-yl]methyl]morpholin-4-yl]quinoline-8-carbonitrile], for which the inhibition at 10 min, 10 µM at CYP2D6 is 1%. The IC50 on TLR9 is 66 nM.

For `C[C@@H]1CN(c2ccc(C#N)c3ncccc23)C[C@H](CN2CC(n3ncc4c3[C@H](C)NCC4)C2)O1` (single isomer, unassigned) [Example 32], the inhibition at 10 min, 10 µM at CYP2D6 came out at 11%. At TLR9, the IC50 was 62 nM.

As for `Cc1c2c(nn1C1CN(C[C@H]3CN(c4ccc(C#N)c5ncccc45)C[C@@H](C)O3)C1)CNCC2` [Example 43, 5-[(2R,6S)-2-methyl-6-[[3-(3-methyl-4,5,6,7-tetrahydropyrazolo[3,4-c]pyridin-2-yl)azetidin-1-yl]methyl]morpholin-4-yl]quinoline-8-carbonitrile], the IC50 at TLR9 was 83 nM.

As for `Cc1nn(C2CN(C[C@H]3CN(c4ccc(C#N)c5ncccc45)C[C@@H](C)O3)C2)c2c1CN(C)CC2` [Example 14, 5-[(2S,6R)-2-[[3-(3,5-dimethyl-6,7-dihydro-4H-pyrazolo[4,3-c]pyridin-1-yl)azetidin-1-yl]methyl]-6-methyl-morpholin-4-yl]quinoline-8-carbonitrile], at TLR9, the IC50 was determined as 276 nM.

Regarding `C[C@@H]1CN(c2ccc(C#N)c3ncccc23)C[C@H](CN2CC(n3cc4c(n3)CN[C@@H](C)C4)C2)O1` (single isomer, unassigned) [Example 29], the IC50 on TLR9 was found to be 72 nM.

Consider `C[C@@H]1CN(c2ccc(C#N)c3ncccc23)C[C@H](CN2CCC(n3ncc4c3CCNC4)CC2)O1` [Example 35, 5-[(2R,6S)-2-methyl-6-[[4-(4,5,6,7-tetrahydropyrazolo[4,3-c]pyridin-1-yl)-1-piperidyl]methyl]morpholin-4-yl]quinoline-8-carbonitrile], for which the IC50 on TLR9 was 82 nM.

`C[C@@H]1CN(c2ccc(C#N)c3ncccc23)C[C@H](CN2CC(n3cc4c(n3)[C@H](C)CNC4)C2)O1` (single isomer, unassigned) [Example 25]: the IC50 on TLR9 was determined as 82 nM.

Take `C[C@@H]1CN(c2ccc(C#N)c3ncccc23)C[C@H](CN2CC(n3ncc4c3CNC4)C2)O1` [Example 10, 5-[(2S,6R)-2-[[3-(5,6-dihydro-4H-pyrrolo[3,4-c]pyrazol-1-yl)azetidin-1-yl]methyl]-6-methyl-morpholin-4-yl]quinoline-8-carbonitrile]: at TLR9, the IC50 was determined as 143 nM.

For the compound `C[C@@H]1CN(c2ccc(C#N)c3ncccc23)C[C@H](CN2CC(n3cc4c(n3)C(C)(C)CNC4)C2)O1` [Example 24, 5-[(2S,6R)-2-[[3-(7,7-dimethyl-5,6-dihydro-4H-pyrazolo[4,3-c]pyridin-2-yl)azetidin-1-yl]methyl]-6-methyl-morpholin-4-yl]quinoline-8-carbonitrile], the IC50 on TLR9 worked out at 98 nM.

With `C[C@@H]1CN(c2ccc(C#N)c3ncccc23)C[C@H](CN2CC(n3ncc4c3CCNC4)C2)O1` [Example 1, 5-[(2R,6S)-2-methyl-6-[[3-(4,5,6,7-tetrahydropyrazolo[4,3-c]pyridin-1-yl)azetidin-1-yl]methyl]morpholin-4-yl]quinoline-8-carbonitrile], the IC50 on TLR9 came out at 57 nM.

As for `C[C@@H]1CN(c2ccc(C#N)c3ncccc23)C[C@H](CN2CC(n3cc4c(n3)[C@@H](C)NCC4)C2)O1` (single isomer, unassigned) [Example 33], at TLR9, the IC50 came out at 34 nM.
